Like-named read-outs stand apart in the source and are kept apart here.
Key:
[1] = Single timepoint drug metabolite testing (6-TGMP in mouse plasma) after first dose; type: in vivo; settings: two hours following initial dose
Method: (§1) The in vivo antitumor efficacy of MK-905 was evaluated in the NALM6-Luc-mCh-Puro human acute lymphoblastic leukemia in female NSG mice. Mice were inoculated with tumor cells on day 0, staged by BLI on day 3, and sorted into matched treatment groups. The primary endpoint of the study was tumor bioluminescence imaging (BLI) signal. Secondary endpoints included: animal survival, weight changes, and clinical pathology markers. Single timepoint drug metabolite testing was conducted after the first dose of MK-905. Studies were run in comparison to vehicle or 6-MP treatment.

[2] = test system: NALM6-Luc-mCh-Puro human acute lymphoblastic leukemia; assay: In vivo antitumor efficacy, NALM6-Luc-mCh-Puro leukemia in female NSG mice (BLI); settings: MK-905 40 then 20 mg/kg i.p./day, 6-MP 20 then 10 mg/kg i.p./day; for day 15 mean BLI signal: 5 days/week, vehicle 1.65×10^10; for percent of the median vehicle group tumor BLI signal: day 15
Method: as §1

[3] = test system: murine NPcis (NF1^+/−;p53^+/−) tumor cells; assay: Tumor growth in murine sarcoma model (subcutaneous NPcis flank tumors); type: in vivo, mouse
Method: (§2) C57BL/6 mice at 10 weeks of age between 25 g and 30 g were obtained from Envigo. To induce solid tumor growth in animals, 3-5 million murine NPcis (NF1^+/−;p53^+/−) tumor cells grown and harvested from cell culture, were injected subcutaneously to the right flank. […] Animals were then randomly assigned to a treatment arm: Vehicle or MK-905 (n=10/group; average tumor volume of ˜200 mm^3). […] Tumor volume was calculated by the formula: volume=(L×(W^2))/2. […]

[4] = ALT (liver inflammation marker) and animal weight in sarcoma-model mice
Method: as §2

healthy NSG mice = settings: for mice survived >2 weeks: 40 mg/kg group; for Mice surviving >2 weeks: 5 d/week, i.p., healthy female NSG mice, n=5/group
Method: Animal weights and body condition scores were measured three times per week. After twenty one days, surviving mice were euthanized and blood collected for clinical chemistry measurements (complete blood count with differential, clinical chemistries). […] 80% of mice survived >2 weeks in the MK-905 40 mg/kg group, and 100% of mice survived the study in the vehicle and MK-905 20 mg/kg groups.

| Structure (SMILES) | conversion to the active 6-thioguanine monophosphate (6-TGMP) metabolite [1] | day 15 mean BLI signal [2] | percent of the median vehicle group tumor BLI signal [2] [%] | mean tumor volume ([3]; 6-MP 20 mg/kg i.p., following ten days of dosing, vehicle 2,038 mm^3) | blood ALT increase compared to vehicle-treated mice ([4]; at sacrifice, 6-MP 20 mg/kg i.p., ten days) | blood ALT as a marker of liver inflammation ([4]; at sacrifice, 6-MP 20 mg/kg i.p., ten days, vehicle 20 U/L) [U/L] | mice survived >2 weeks (healthy NSG mice; healthy NSG mice) | mean tumor volume ([3]; MK-905 13 mg/kg i.p., following fourteen days of dosing, vehicle 1,657 mm^3) [mm^3] | Tumor weights at sacrifice ([3]; MK-905 13 mg/kg i.p., fourteen days, vehicle 1276 mg) [mg] | Animal weights relative to starting weight ([4]; MK-905 13 mg/kg i.p., fourteen days) [%] | Serum ALT as a marker of liver inflammation (in words) ([4]; MK-905 13 mg/kg i.p., fourteen days, versus vehicle) | mice survived the study (healthy NSG mice; 20 mg/kg group, healthy NSG mice, twenty one days) [%] | Mice surviving >2 weeks (healthy NSG mice; 20 mg/kg) | Mice surviving >2 weeks (healthy NSG mice; 40 mg/kg) |
| --- | --- | --- | --- | --- | --- | --- | --- | --- | --- | --- | --- | --- | --- | --- |
| Sc1ncnc2nc[nH]c12 [6-MP, 6-mercaptopurine, reference compound] | no active metabolite was observed | 1.36×10^10 photons/sec | 77 | 1,107 mm^3 | two-fold increased | 46 | no mice surviving |  |  |  |  |  |  |  |
| CC(C)OC(=O)[C@H](C)NP(=O)(OC[C@H]1OC(n2cnc3c(=S)[nH]c(N)nc32)C(O)C1O)Oc1ccccc1 (stereo partly drawn) [MK-905] | observed | 3.27×10^8 photons/sec | 1.3 |  |  |  | 80% | 415 | 359 | ≤ 10 | normal and not significantly different | 100 | 5/5 | 4/5 |

Reference: US20240024347A1 (The Johns Hopkins University, priority 2020, published 2024)
